Columns and labels:
Assay type in all cases: functional, cell membranes
Parameters in all cases: scale not given: the % may be the effect or the level left
[1] = biological target: Multidrug resistance associated protein (Homo sapiens) (UniProt Q96QA9); assay: TP_TRANSPORTER: inhibition of MTX uptake (MTX: 1 uM, GC: 300 uM) in membrane vesicles from MRP3-expressing HEK293 cells; conditions: Membrane vesicle
[2] = biological target: Multidrug resistance associated protein (Homo sapiens) (UniProt Q96QA9); assay: TP_TRANSPORTER: inhibition of MTX uptake (MTX: 1 uM, MK571: 100 uM) in membrane vesicles from MRP3-expressing HEK293 cells; conditions: Membrane vesicle
[3] = biological target: Multidrug resistance associated protein (Homo sapiens) (UniProt Q96QA9); assay: TP_TRANSPORTER: inhibition of MTX uptake (MTX: 1 uM, VP-16: 300 uM) in membrane vesicles from MRP3-expressing HEK293 cells; conditions: Membrane vesicle
[4] = biological target: Multidrug resistance associated protein (Homo sapiens) (UniProt Q96QA9); assay: TP_TRANSPORTER: inhibition of MTX uptake (MTX: 1 uM, E217betaG: 100 uM) in membrane vesicles from MRP3-expressing HEK293 cells; conditions: Membrane vesicle
[5] = biological target: Multidrug resistance associated protein (Homo sapiens) (UniProt Q96QA9); assay: TP_TRANSPORTER: inhibition of MTX uptake (MTX: 1 uM, AG-A: 1000 uM) in membrane vesicles from MRP3-expressing HEK293 cells; conditions: Membrane vesicle
[6] = biological target: Multidrug resistance associated protein (Homo sapiens) (UniProt Q96QA9); assay: TP_TRANSPORTER: inhibition of MTX uptake (MTX: 1 uM, Vincristine: 300 uM) in membrane vesicle from MRP3-expessing HEK 293 cell; conditions: HEK293
[7] = biological target: Multidrug resistance associated protein (Homo sapiens) (UniProt Q96QA9); assay: TP_TRANSPORTER: inhibition of MTX uptake (MTX: 1 uM, DOX;G: 300 uM) in membrane vesicles from MRP3-expressing HEK293 cells; conditions: Membrane vesicle
[8] = biological target: Multidrug resistance associated protein (Homo sapiens) (UniProt Q96QA9); assay: TP_TRANSPORTER: inhibition of MTX uptake (MTX: 1 uM, PAK-104P: 100 uM) in membrane vesicles from MRP3-expressing HEK293 cells; conditions: Membrane vesicle
[9] = biological target: Multidrug resistance associated protein (Homo sapiens) (UniProt Q96QA9); assay: TP_TRANSPORTER: inhibition of MTX uptake (MTX: 1 uM, PSC-833: 10 uM) in membrane vesicles from MRP3-expressing HEK293 cells; conditions: Membrane vesicle

Multidrug resistance associated protein (Homo sapiens), sequence (Q96QA9 as listed by the source): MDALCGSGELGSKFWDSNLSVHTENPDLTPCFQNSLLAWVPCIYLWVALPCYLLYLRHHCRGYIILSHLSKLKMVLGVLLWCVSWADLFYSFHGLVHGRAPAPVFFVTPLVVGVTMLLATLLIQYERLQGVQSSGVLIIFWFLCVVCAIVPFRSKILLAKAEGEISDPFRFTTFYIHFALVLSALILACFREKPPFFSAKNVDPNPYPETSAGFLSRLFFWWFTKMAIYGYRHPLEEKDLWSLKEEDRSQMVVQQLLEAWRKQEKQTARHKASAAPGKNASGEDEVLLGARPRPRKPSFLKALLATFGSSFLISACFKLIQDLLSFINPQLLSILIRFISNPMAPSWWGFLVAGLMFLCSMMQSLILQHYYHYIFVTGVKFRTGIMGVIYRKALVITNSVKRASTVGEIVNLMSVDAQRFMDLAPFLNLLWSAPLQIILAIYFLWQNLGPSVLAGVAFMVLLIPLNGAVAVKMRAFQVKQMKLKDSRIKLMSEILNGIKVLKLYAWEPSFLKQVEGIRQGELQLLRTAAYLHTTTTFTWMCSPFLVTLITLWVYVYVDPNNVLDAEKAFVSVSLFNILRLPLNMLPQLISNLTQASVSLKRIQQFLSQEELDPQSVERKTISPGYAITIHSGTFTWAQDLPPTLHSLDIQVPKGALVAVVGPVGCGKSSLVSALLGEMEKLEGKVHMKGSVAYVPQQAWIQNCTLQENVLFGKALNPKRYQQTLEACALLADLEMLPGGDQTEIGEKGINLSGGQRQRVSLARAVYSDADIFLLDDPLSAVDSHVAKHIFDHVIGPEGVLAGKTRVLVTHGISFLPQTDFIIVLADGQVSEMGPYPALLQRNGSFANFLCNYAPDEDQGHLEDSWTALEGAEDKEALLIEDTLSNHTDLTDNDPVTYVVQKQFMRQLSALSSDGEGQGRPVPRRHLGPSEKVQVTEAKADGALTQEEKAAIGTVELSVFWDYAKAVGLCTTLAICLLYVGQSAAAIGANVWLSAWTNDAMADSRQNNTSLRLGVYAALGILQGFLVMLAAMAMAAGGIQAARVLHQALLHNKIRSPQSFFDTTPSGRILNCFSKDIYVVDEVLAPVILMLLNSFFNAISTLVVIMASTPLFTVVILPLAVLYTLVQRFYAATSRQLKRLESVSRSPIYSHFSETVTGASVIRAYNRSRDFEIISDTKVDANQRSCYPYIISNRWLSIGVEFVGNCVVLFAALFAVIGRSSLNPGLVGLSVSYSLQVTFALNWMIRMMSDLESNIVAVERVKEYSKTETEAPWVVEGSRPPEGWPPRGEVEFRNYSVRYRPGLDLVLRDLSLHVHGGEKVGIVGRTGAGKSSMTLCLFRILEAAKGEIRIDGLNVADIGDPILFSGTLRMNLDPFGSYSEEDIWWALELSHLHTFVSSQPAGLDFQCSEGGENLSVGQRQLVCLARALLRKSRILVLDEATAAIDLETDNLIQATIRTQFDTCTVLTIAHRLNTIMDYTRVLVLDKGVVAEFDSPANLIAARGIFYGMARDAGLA

Compound: C[C@H](CCC(=O)NCC(=O)O)[C@H]1CC[C@H]2[C@@H]3[C@H](O)C[C@@H]4C[C@H](O)CC[C@]4(C)[C@H]3C[C@H](O)[C@]12C
- Activity [1]: 10.4%

Compound: CN(C)C(=O)CCSC(SCCC(=O)O)c1cccc(/C=C/c2ccc3ccc(Cl)cc3n2)c1 (centres undefined)
- Activity [2]: 2.3%

Compound: COc1cc([C@@H]2c3cc4c(cc3[C@@H](O[C@@H]3O[C@@H]5CO[C@@H](C)O[C@H]5[C@H](O)[C@H]3O)[C@H]3COC(=O)[C@H]23)OCO4)cc(OC)c1O
- Activity [3]: 3.47%

Compound: C[C@]12CC[C@@H]3c4ccc(O)cc4CC[C@H]3[C@@H]1CC[C@@H]2O[C@@H]1O[C@H](C(=O)O)[C@@H](O)[C@H](O)[C@H]1O
- Activity [4]: 8.27%

Compound: CC(=O)O[C@@H]1[C@@H]2[C@@H](OC(C)=O)C=C3[C@H]([C@H](O)C[C@]4(C)[C@@H]([C@H](C)[C@H](O)CCC(C)C)CC[C@@H]34)[C@@]2(C)CC[C@@H]1OC(C)=O
- Activity [5]: 56.9%

Compound: CC[C@]1(O)C[C@H]2CN(CCc3c([nH]c4ccccc34)[C@@](C(=O)OC)(c3cc4c(cc3OC)N(C=O)[C@H]3[C@@](O)(C(=O)OC)[C@H](OC(C)=O)[C@]5(CC)C=CCN6CC[C@]43[C@@H]65)C2)C1
- Activity [6]: 39.1%

Compound: COc1cccc2c1C(=O)c1c(O)c3c(c(O)c1C2=O)C[C@@](O)(C(=O)CO)C[C@@H]3O[C@H]1C[C@H](N)[C@H](O)[C@H](C)O1
- Activity [7]: 80%

Compound: Cc1nc(C)c(P2(=O)O[C@H](C)C[C@@H](C)O2)c(-c2cccc([N+](=O)[O-])c2)c1C(=O)OCCN1CCN(C(c2ccccc2)c2ccccc2)CC1 (some centres undefined)
- Activity [8]: 3%

Compound: C/C=C/C[C@@H](C)C(=O)[C@H]1C(=O)N[C@@H](C(C)C)C(=O)N(C)CC(=O)N(C)[C@@H](CC(C)C)C(=O)N[C@@H](C(C)C)C(=O)N(C)[C@@H](CC(C)C)C(=O)N[C@@H](C)C(=O)N[C@H](C)C(=O)N(C)[C@@H](CC(C)C)C(=O)N(C)[C@@H](CC(C)C)C(=O)N(C)[C@@H](C(C)C)C(=O)N1C
- Activity [9]: 61.4%

Source: ChEMBL document CHEMBL2073963, “Transport of methotrexate (MTX) and folates by multidrug resistance protein (MRP) 3 and MRP1: effect of polyglutamylation on MTX transport” (Cancer Res, 2001)
